This passage reports IC50 results from US7087626B2, “Pyrrole derivatives as pharmaceutical agents” (Eli Lilly and Company, priority 2001, dated 2006).

pIC50: −log10 of the molar value.

The target in one test is T1, p38α/SAPK2α (Homo sapiens, UniProt Q16539).
T1 construct: purchased Upstate Biotechnology 14-251
Nature of the test: p38α in vitro kinase assay. The note with it: 5 nM p38α, 62.5 uM EGFR substrate, 100 uM ATP, 30° C., 40 min. Type of test: biochemical. The procedure:
p38α in vitro Kinase Assay
Active p38α/SAPK2α was purchased from Upstate Biotechnology (cat#14-251). A known p38α substrate from EGFR was used in the assay (Young, et al. (1997) JBC 272: 12116-12121).
Reactions were performed in 1× kinase buffer (25 mM Tris-HCl pH 7.5, 5 mM β-glycerophosphate, 2 mM DTT, 0.1 mM Na3VO4, 10 mM MgCl2, 1 uM Microcystin) with 5 nM p38α, 62.5 uM substrate, 40 uM to 0.2 nM compound dilution series in 1×KB/16% DMSO (final 4% DMSO concentration). Reactions were started by addition of 100 uM ATP (final concentration) with 1 uCi ^33P-γ-ATP in 1×KB and incubated at 30° C. for 40 min. Reactions were stopped with H3PO4 and quantitated on Millipore PH phosphocellulose filter plates by liquid scintillation counting on a MicroBeta JET.

Another test has as its target T2, KDR (VEGFR2) (Homo sapiens, UniProt P35968).
T2 construct: The 6×-HIS tagged cytoplasmic kinase domain of KDR was expressed and purified from Sf9 insect cell lysates; 6xHis; made in house; host or cells: Sf9 insect cells
Nature of the test: KDR (VEGFR2) in vitro kinase assay. Type of test: biochemical. The note with it: 1 ug enzyme, 1 uM ATP, 30° C., 20 min. Here is the method: KDR (VEGFR2) Purification and in vitro Kinase Assay
The 6×-HIS tagged cytoplasmic kinase domain of KDR was expressed and purified from Sf9 insect cell lysates as described above with the following modification:
1× kinase buffer for chromatography washes and elution was changed to 100 mM HEPES pH 7.5, 10 mM MnCl2 and 5 mM β-mercaptoethanol. The resulting material was approximately 40% pure and had tyrosine autophosphorylation activity.
Reactions: 1 ug enzyme in 1×KB, compound dilution series in 1×KB/16% DMSO (20 uM to 1 nM final concentration with 4% DMSO final concentration), reactions were started by adding ATP mix (1 uM ATP/1 uCi ^33P-[…]-ATP final concentrations) in 1×KB.
Reactions were incubated at 30° C. for 20 min. The reactions were stopped and quantitated using standard TCA/BSA precipitation onto Millipore FC glass fiber filter plates and by liquid scintillation counting on a MicroBeta JET.

A word on the pIC50: it is −log10 of the IC50, conventionally taken in molar units. Higher therefore signals a small IC50.

T2 sequence (P35968 834-1162 limits assumed, species assumed): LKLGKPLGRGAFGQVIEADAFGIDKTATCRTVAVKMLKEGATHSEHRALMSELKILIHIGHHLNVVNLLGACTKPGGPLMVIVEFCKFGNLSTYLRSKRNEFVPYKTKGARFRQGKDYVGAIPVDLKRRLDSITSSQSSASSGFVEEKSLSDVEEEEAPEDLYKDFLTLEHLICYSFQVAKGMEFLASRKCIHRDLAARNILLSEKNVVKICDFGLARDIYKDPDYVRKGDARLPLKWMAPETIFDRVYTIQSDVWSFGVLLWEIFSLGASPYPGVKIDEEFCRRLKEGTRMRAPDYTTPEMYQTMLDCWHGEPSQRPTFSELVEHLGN
T1 sequence (Q16539 whole entry): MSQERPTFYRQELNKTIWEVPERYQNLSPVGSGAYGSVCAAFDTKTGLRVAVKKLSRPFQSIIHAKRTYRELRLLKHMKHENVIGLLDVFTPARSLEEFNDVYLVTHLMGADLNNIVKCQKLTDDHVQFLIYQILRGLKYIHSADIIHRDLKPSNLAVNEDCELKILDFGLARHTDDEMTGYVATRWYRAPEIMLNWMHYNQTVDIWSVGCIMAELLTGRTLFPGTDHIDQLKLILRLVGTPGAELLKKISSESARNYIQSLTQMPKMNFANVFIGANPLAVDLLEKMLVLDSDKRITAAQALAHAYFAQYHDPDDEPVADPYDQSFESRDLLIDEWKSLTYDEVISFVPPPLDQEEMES

As for `COC(=O)c1ccc2c(-c3c(-c4ccccn4)nn4c3CCC4)ccnc2c1` [4-[2-Pyridin-2-yl-5,6-dihydro-4H-pyrrolo[1,2-b]pyrazol-3-yl]-quinoline-7-carboxylic acid methyl ester], the pIC50 at p38α/SAPK2α and on KDR (VEGFR2) was greater than 4.70 throughout.
